Data: patent US10590158B2 (priority 2015, dated 2020)

Columns and labels:
Test in all cases: cells
Assay type in all cases: cell-based
MES DX cells = conditions: MDR1, 72 h, read-out: IC50 MES DX
293T cells = conditions: Homo sapiens, HEK-293T, 72 h, read-out: IC50 293T
MES SA cells = conditions: Homo sapiens, 72 h, read-out: IC50 MES SA

Compound | IC50 (MES DX cells) | IC50 (293T cells) | IC50 (MES SA cells)
COC(=O)NC1=C2/C(=C\CSSC)[C@](O)(C#C/C=C\C#C[C@]2(O)OC2OC(C)C(SC)(C(=O)c3nccc4c3[nH]c3ccc(O)cc34)C(O)C2OC2CC(OC)C(NC(C)C)CO2)CC1=O (stereo partly shown) | 34.6 nM | 0.00146 nM | –
COC(=O)NC1=C2/C(=C\CSSSC)[C@](O)(C#C/C=C\C#C[C@]2(O)OC2OC(C)C(SC)(C(=O)c3nccc4c3[nH]c3ccc(O)cc34)C(O)C2OC2CC(OC)C(NC(C)C)CO2)CC1=O (stereo partly shown) | – | 0.0162 nM | 0.0126 nM
